# Experimental data: PubChem BioAssay AID2060625 (Molecular Pharmacology Branch, DTP, NCI, 2025)
# pIC50: −log10 of the molar value.
# Tested on: 186277-243-T-J2-PDC spheroids with HUVEC/MSC, viability
# Experiment: Anticancer human tumor 186277-243-T-J2-PDC patient-derived colon adenocarcinoma cell line growth inhibition [CLK]
# Details: for pIC50: curve of first compound; for viability, T/C: stronger effect = lower value
# Excerpt: A high-throughput screen of multi-cell type tumor spheroids was designed to identify active combinations of […] and targeted small molecules. Complex spheroids include a stromal component modeled by human endothelial cells (HUVEC) and fibroblasts modeled by human mesenchymal stem cells (MSCs). The concentration ranges selected for each drug and investigational agent were based upon clinically achievable concentrations if the clinical Cmax of the agent was known.
# Compounds. The drugs and investigational agents: cirtuvivint (SM08502; NSC835563), CC-671 (NSC850746), vemurafenib (NSC761431), tapotoclax (NSC804041), sotorasib (NSC818433), adagrasib (NSC831453), MRTX-1133 (NSC836407), BAY2416964 (NSC825713), copanlisib (NSC816437), inavolisib (NSC800729), abemaciclib (NSC768073), osimertinib (NSC779217), entinostat (NSC756642), eltanexor (KPT-8602, NSC794443), venetoclax (NSC766270), ceralasertib (NSC777638), bortezomib (NSC756655), olaparib (NSC753686), talazoparib (NSC767125), alisertib (NSC759677), peposertib (NSC802822), gemcitabine (NSC613327), 5-fluorouracil (NSC19893), SN-38 (NSC673596), oxaliplatin (NSC266046), paclitaxel (NSC125973), and doxorubicin (NSC123127), were obtained from the National Cancer Institute (NCI) Developmental Therapeutics Program Chemical Repository. The FDA-approved anticancer drug set is available from the Developmental Therapeutics Program at https://dtp.cancer.gov/organization/dscb/obtaining/available plates.htm. […] The stock solutions were prepared in dimethyl sulfoxide (DMSO, Sigma-Aldrich, St. Louis, MO, cat. D2650), except for the platinum complexes which were prepared in saline (Quality Biological, Gaithersburg, MD, cat. 114-055-101), at 800-fold the tested concentration and stored at -70 degrees C prior to their use. All drugs and investigational agents were tested over a range starting from a high concentration at or near the clinical Cmax and decreasing in half-log increments. If the clinical Cmax for an agent had not been determined, the highest concentration tested was 10 microM.
# Cell Culture. All cells were maintained in an incubator at 37 degrees C and 5% CO2 with 95% humidity. The PDC lines were cultured according to standard operating procedures established by the NCI PDMR. Briefly, all PDCs were thawed and cultured in Matrigel-coated flasks prepared with a working solution of 1X Ham's F-12 nutrient mix, without supplementation (Invitrogen, Waltham, MA, cat. 11765054), 100 U/mL penicillin-streptomycin (Invitrogen, cat. 15140122), and 2.5% Matrigel (Corning Inc., Corning, NY, cat. 354248) for the first three passages. The 947758-054-R-J2-PDC line was cultured in 6B/Colon 1A media, which includes advanced DMEM/F-12 (Thermo Fisher Scientific, cat. 12634028), 10 mM HEPES (Thermo Fisher Scientific, cat. 15630080), 1X GlutaMAX supplement (Thermo Fisher Scientific, cat. 35050061), 0.1 mg/mL primocin (InvivoGen, cat. ant-pm-2), 10% defined fetal bovine serum, heat inactivated (HyClone Laboratories Inc., cat. SH30070.03HI), 1.25 mM N-Acetyl-L-cysteine (Sigma-Aldrich, cat. A9165), 10 mM nicotinamide (Sigma-Aldrich, cat. N0636), 1X B-27 supplement (Thermo Fisher Scientific, cat. 17504044), 1X N-2 supplement (Thermo Fisher Scientific, cat. 17502048), and 10 microM Y-27632 dihydrochloride (Tocris Bioscience, cat. 1254). The 876862-298-R-J1-PDC was cultured in 6E media, which includes all 6B/Colon 1A media components plus 50% L-WRN conditioned media (ATCC, cat. CRL-3276), 50 ng/mL recombinant human EGF recombinant protein (hEGF; Thermo Fisher Scientific, cat. PHG0311), 10 ng/mL recombinant human fibroblast growth factor 10 (hGFG-10; PeproTech, cat. 100-26), 1 ng/mL recombinant human fibroblast growth factor 2 (hFGF-2; PeproTech, cat. 100-18B), and 1 µM prostaglandin E2 (PGE2; Tocris, cat. 2296). The 227483-062-R1-J1-PDC line was cultured in Panc media, containing all 6E components except hFGF-2, with the addition of 500 nM SB-431542 (Selleckchem, cat. S1067) and 10 nM gastrin (Tocris, cat. 3006). […]
# [1] = second compound 0.0316 µM, first compound 0.0316 µM
# [2] = second compound 0.0316 µM, first compound 0.1 µM
# [3] = second compound 0.0316 µM, first compound 0.316 µM
# [4] = second compound 0.0316 µM, first compound 1 µM
# [5] = second compound 0.1 µM, first compound 0.0316 µM
# [6] = second compound 0.1 µM, first compound 0.1 µM
# [7] = second compound 0.1 µM, first compound 0.316 µM
# [8] = second compound 0.1 µM, first compound 1 µM
# [9] = second compound 0.316 µM, first compound 0.0316 µM
# [10] = second compound 0.316 µM, first compound 0.1 µM
# [11] = second compound 0.316 µM, first compound 0.316 µM
# [12] = second compound 0.316 µM, first compound 1 µM
# [13] = second compound 1 µM, first compound 0.0316 µM
# [14] = second compound 1 µM, first compound 0.1 µM
# [15] = second compound 1 µM, first compound 0.316 µM
# [16] = second compound 1 µM, first compound 1 µM
# [17] = second compound 3.16 µM, first compound 0.0316 µM
# [18] = second compound 3.16 µM, first compound 0.1 µM
# [19] = second compound 3.16 µM, first compound 0.316 µM
# [20] = second compound 3.16 µM, first compound 1 µM
# [21] = second compound 10 µM, first compound 0.0316 µM
# [22] = second compound 10 µM, first compound 0.1 µM
# [23] = second compound 10 µM, first compound 0.316 µM
# [24] = second compound 10 µM, first compound 1 µM
# 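Also: compound exposure lasted seven days before readout.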
# 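For viability, T/C in this document: 100% = DMSO vehicle control wells.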
smiles,measurement,setting,value
COc1c(OCCCN2CCOCC2)ccc2c3n(c(=NC(=O)c4cnc(N)nc4)nc12)CCN3 + CN1CCN(c2cc(C(=O)Nc3cc4cc(-c5cnn(C)c5)ccc4cn3)ccn2)CC1,pIC50,second compound 0.0316 µM,7.57
same,pIC50,second compound 0.1 µM,8.13
same,pIC50,second compound 0.316 µM,> 8.50
same,pIC50,second compound 1 µM,> 8.50
same,pIC50,second compound 3.16 µM,> 8.50
same,pIC50,second compound 10 µM,> 8.50
same,"viability, T/C","second compound 0.0316 µM, first compound 0.00316 µM",93.9%
same,"viability, T/C","second compound 0.0316 µM, first compound 0.01 µM",69%
same,"viability, T/C",[1],50%
same,"viability, T/C",[2],25.4%
same,"viability, T/C",[3],14.8%
same,"viability, T/C",[4],12.5%
same,"viability, T/C","second compound 0.1 µM, first compound 0.00316 µM",68.3%
same,"viability, T/C","second compound 0.1 µM, first compound 0.01 µM",43%
same,"viability, T/C",[5],21.3%
same,"viability, T/C",[6],7.94%
same,"viability, T/C",[7],6.07%
same,"viability, T/C",[8],5.15%
same,"viability, T/C","second compound 0.316 µM, first compound 0.00316 µM",20%
same,"viability, T/C","second compound 0.316 µM, first compound 0.01 µM",11.7%
same,"viability, T/C",[9],3.4%
same,"viability, T/C",[10],1.12%
same,"viability, T/C",[11],1.11%
same,"viability, T/C",[12],0.75%
same,"viability, T/C","second compound 1 µM, first compound 0.00316 µM",2.09%
same,"viability, T/C","second compound 1 µM, first compound 0.01 µM",0.39%
same,"viability, T/C",[13],0.99%
same,"viability, T/C",[14],0.18%
same,"viability, T/C",[15],0.78%
same,"viability, T/C",[16],0.88%
same,"viability, T/C","second compound 3.16 µM, first compound 0.00316 µM",2.33%
same,"viability, T/C","second compound 3.16 µM, first compound 0.01 µM",1.2%
same,"viability, T/C",[17],1.43%
same,"viability, T/C",[18],0.42%
same,"viability, T/C",[19],0.95%
same,"viability, T/C",[20],0.47%
same,"viability, T/C","second compound 10 µM, first compound 0.00316 µM",0.65%
same,"viability, T/C","second compound 10 µM, first compound 0.01 µM",0.74%
same,"viability, T/C",[21],0.78%
same,"viability, T/C",[22],0.76%
same,"viability, T/C",[23],1.19%
same,"viability, T/C",[24],0.45%
CC(Nc1ccc2c(c1)OCCn1cc(N3C(=O)OCC3C(F)F)nc1-2)C(N)=O (centres undefined) + CN1CCN(c2cc(C(=O)Nc3cc4cc(-c5cnn(C)c5)ccc4cn3)ccn2)CC1,pIC50,second compound 0.0316 µM,6.08
same,pIC50,second compound 0.1 µM,6.80
same,pIC50,second compound 0.316 µM,> 7.50
same,pIC50,second compound 1 µM,> 7.50
same,pIC50,second compound 3.16 µM,> 7.50
same,pIC50,second compound 10 µM,> 7.50
same,"viability, T/C",[1],87.7%
same,"viability, T/C",[2],94.8%
same,"viability, T/C",[3],59.2%
same,"viability, T/C",[4],55.8%
same,"viability, T/C","second compound 0.0316 µM, first compound 3.16 µM",46.4%
same,"viability, T/C","second compound 0.0316 µM, first compound 10 µM",42.4%
same,"viability, T/C",[5],71.8%
same,"viability, T/C",[6],54.4%
same,"viability, T/C",[7],42.3%
same,"viability, T/C",[8],30.4%
same,"viability, T/C","second compound 0.1 µM, first compound 3.16 µM",19.4%
same,"viability, T/C","second compound 0.1 µM, first compound 10 µM",13.4%
same,"viability, T/C",[9],20.5%
same,"viability, T/C",[10],17.4%
same,"viability, T/C",[11],7.85%
same,"viability, T/C",[12],3.43%
same,"viability, T/C","second compound 0.316 µM, first compound 3.16 µM",2.25%
same,"viability, T/C","second compound 0.316 µM, first compound 10 µM",1.31%
same,"viability, T/C",[13],0.25%
same,"viability, T/C",[14],0.73%
same,"viability, T/C",[15],0.91%
same,"viability, T/C",[16],0.46%
same,"viability, T/C","second compound 1 µM, first compound 3.16 µM",0.47%
same,"viability, T/C","second compound 1 µM, first compound 10 µM",1.48%
same,"viability, T/C",[17],1.24%
same,"viability, T/C",[18],0.72%
same,"viability, T/C",[19],1.34%
same,"viability, T/C",[20],0.69%
same,"viability, T/C","second compound 3.16 µM, first compound 3.16 µM",0.82%
same,"viability, T/C","second compound 3.16 µM, first compound 10 µM",0.74%
same,"viability, T/C",[21],0.96%
same,"viability, T/C",[22],1.39%
same,"viability, T/C",[23],0.74%
same,"viability, T/C",[24],0.87%
same,"viability, T/C","second compound 10 µM, first compound 3.16 µM",0.87%
same,"viability, T/C","second compound 10 µM, first compound 10 µM",0.69%
